The record followed here is patent US20250205194A1, “COMPOSITION CONTAINING L-ASCORBIC ACID DL-a-TOCOPHEROL PHOSPHORIC ACID DIESTER ALKALI METAL SALT” (SUNSTAR INC., priority 2022, published 2025).

T2 sequence (P22894 100-262 limits assumed): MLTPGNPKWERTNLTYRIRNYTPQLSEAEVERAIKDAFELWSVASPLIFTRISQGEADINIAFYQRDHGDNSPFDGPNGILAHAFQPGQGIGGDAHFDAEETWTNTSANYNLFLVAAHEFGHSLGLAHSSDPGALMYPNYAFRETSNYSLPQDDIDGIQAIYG

One data set has as its target T1, MMP-1 (fibroblast collagenase) (Homo sapiens, UniProt P03956).
T1 construct: purchased Enzo Life Sciences, Inc. BML-AK405-0001
T1 sequence (P03956 100-269 limits assumed): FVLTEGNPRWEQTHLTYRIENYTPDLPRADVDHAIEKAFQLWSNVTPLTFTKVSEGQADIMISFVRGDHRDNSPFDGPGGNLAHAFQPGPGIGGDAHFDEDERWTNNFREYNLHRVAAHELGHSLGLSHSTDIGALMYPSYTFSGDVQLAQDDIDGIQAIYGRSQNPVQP
In words: MMP activity measurement test, MMP-1 fluorimetric drug discovery kit. In kind it is biochemical. To be noted: reaction with enzyme 37° C. 60 minutes, substrate 60 minutes; FIG. 5. As to the method: (§1) Evaluation material solutions were prepared by individually adding each evaluation material at the respective concentrations shown in FIGS. 4 and 5 to a solvent in which 5% DMSO was added to the buffer included in each kit below. The evaluation materials used are EPC-K (L-ascorbic acid dl-α-tocopherol phosphoric acid diester potassium salt), VC (ascorbic acid), VEA (tocopherol acetate), and VEN (tocopherol nicotinate).
(§2) MMP-8 (neutrophil collagenase) activity was evaluated using an MMP-8 fluorimetric drug discovery kit (Enzo Life Sciences, Inc., BML-AK415-0001), and MMP-1 (fibroblast collagenase) activity was evaluated using an MMP-1 fluorimetric drug discovery kit (Enzo Life Sciences, Inc., BML-AK405-0001), in the following manner. […]
(§3) The fluorescent substrate included in each kit was diluted 10-fold using the buffer, and added in an amount of 10 μl to each solution after the reaction for 60 minutes. After the addition, a reaction was allowed to proceed at 37° C. for 20 minutes for MMP-8 or at 37° C. for 60 minutes for MMP-1, and the fluorescence intensity (excitation light: 328 nm; emission light: 420 nm) was measured. […] The concentration of each evaluation material in FIGS. 4 and 5 is the concentration at the time of preparing the evaluation material, and the final concentration (concentration at the time of measuring fluorescence intensity) is 1/5 of this concentration value.
As for `Cc1c(C)c2c(c(C)c1OP(=O)([O-])OC1=C(O)C(C(O)CO)OC1=O)CCC(C)(CCCC(C)CCCC(C)CCCC(C)C)O2.[K+]` (racemic) [EPC-K, L-ascorbic acid dl-α-tocopherol phosphoric acid diester potassium salt], the “inhibition of MMP-1 activity” value was “inhibited MMP activity (MMP-8 and MMP-1) in a concentration-dependent manner”.

Another data set has as its target T2, MMP-8 (neutrophil collagenase) (Homo sapiens, UniProt P22894).
T2 construct: purchased Enzo Life Sciences, Inc. BML-AK415-0001
In words: MMP activity measurement test, MMP-8 fluorimetric drug discovery kit. The data set is classed as biochemical. The following applies: reaction with enzyme 37° C. 60 minutes, substrate 20 minutes; FIG. 4. As to the method: as §1, §2, §3
On to `Cc1c(C)c2c(c(C)c1OP(=O)([O-])OC1=C(O)C(C(O)CO)OC1=O)CCC(C)(CCCC(C)CCCC(C)CCCC(C)C)O2.[K+]` (racemic) [EPC-K, L-ascorbic acid dl-α-tocopherol phosphoric acid diester potassium salt], for which the “inhibition of MMP-8 activity” value was “inhibited MMP activity (MMP-8 and MMP-1) in a concentration-dependent manner”.

In another data set the test system is oral cavity-derived epithelial cell line (Ca9-22 cells). The experiment in a line: Cytotoxicity evaluation test (WST-1). In kind it is cell-based. The following applies: surfactant final concentration 1%, 10 minutes at room temperature, FIGS. 6 and 7. As to the method: An oral cavity-derived epithelial cell line (Ca9-22 cells) was cultured in a 96-well plate to confluency.
Evaluation solutions were prepared using PBS containing 0.5% DMSO as a solvent so that the final concentration of each surfactant was 1%. The surfactants used were polyoxyethylene (9) lauryl ether, polyoxyethylene (20) cetyl ether, polyoxyethylene (20) stearyl ether, polyoxyethylene (10) octylphenyl ether, polyoxyethylene glycol monolaurate, sorbeth-60 tetraoleate, diethyl sebacate, and polyoxyethylene (10) hydrogenated castor oil.
100 μl of each prepared evaluation solution was individually added to the cultured Ca9-22 cells and allowed to stand for 10 minutes at room temperature. After 10 minutes, washing was performed three times with 200 μl of PBS, a WST-1 reagent (Takara Bio Inc.) was added, and a reaction was allowed to proceed for 30 minutes. After the reaction, the absorbance at 450 nm and 600 nm was measured, and the absorbance at 600 nm was subtracted from the absorbance at 450 nm. The cell viability was calculated from the value calculated by the subtraction, based on the value obtained when only the solvent was added for the treatment taken as 100%. FIGS. 6 and 7 show the results.
In the case of polyoxyethylene (10) octylphenyl ether, the “cytotoxicity in oral cavity-derived cells (cell viability)” value (from here on “cytotoxicity”) is on record as “cytotoxicity was caused”.
Take polyoxyethylene glycol monolaurate: the “cytotoxicity” value is recorded as “cytotoxicity was caused”.
As for polyoxyethylene (9) lauryl ether, the “cytotoxicity” value is “cytotoxicity was caused”.
Regarding polyoxyethylene (20) cetyl ether, the “cytotoxicity” value is “cytotoxicity was caused”.
Consider sorbeth-60 tetraoleate, for which the “cytotoxicity” value is “cytotoxicity was not caused”.
Turning to `CCOC(=O)CCCCCCCCC(=O)OCC` [diethyl sebacate], the “cytotoxicity” value is given as “cytotoxicity was not caused”.
Same read-out and setting: then polyoxyethylene (20) stearyl ether, with “cytotoxicity was caused”; and “polyoxyethylene (10) hydrogenated castor oil”, with “cytotoxicity was not caused”.
